Key:
[1] = test system: s.c. 4T1-luc breast tumors; test: WST11 VTP with or without single dose CTX in mice bearing s.c. 4T1-luc tumors in the hind leg (Scheme 4); format: in vivo, Balb/c mice; conditions: CTX 50 or 150 mg/kg alone; WST11 VTP at low light intensity (100 mW/cm^2) alone; or combination
Method: (§1) • (i) Bacteriochlorophyll Derivatives—The Bchl derivatives and RGD-conjugates thereof were provided by Steba Biotech (Rehovot, Israel). […] Concentration was verified by spectrophotometric measurement. STL-7012 was provided as dipotassium salt. Working solution was prepared by dissolving STL-7012 K^+ salt in 5% mannitol solution (1 mg/ml). […] WST11 was supplied as a powder and kept in the dark at −20° C. Stock was prepared by dissolving WST11 in DDW containing 5% glucose and 0.67% mannitol, aliquoted and lyophilized. Working solution was reconstituted with DDW and the concentration of solution was confirmed spectrophotometrically. Alternatively, Clinical WST11 (batch: P00611, and 10-130611) was supplied as lyophilized formulation. Material was dissolved in 5% dextrose, aliquoted and stored at −20° C. […] Aliquots were thawed, diluted with saline to a desired concentration and used on the same day at a dose of 75 mg/kg. Cyclophosphamide (CTX, Endoxan®, Baxter Oncology Gmbh, Germany) was purchased from a local pharmacy. A stock solution of 20 mg/ml was prepared by dissolving in 0.9% NaCl, aliquoted and stored at −20° C. Aliquots were thawed, diluted with saline if needed to a desired concentration and used on the same day prepared at indicated doses. • (iii) Murine cell lines—Mammary luciferase (luc)-labeled 4T1 cell line (4T1-Luc) was a kind gift from Dr. Zvi Granot (Faculty of Medicine, The Hebrew University of Jerusalem, Israel); melanoma B16-F10 cell line was obtained from the American Type Culture Collection (ATCC, Manassas, Va.); bladder MB49 cell line was a kind gift from James Allison (MSKCC, New York, USA), and luc-labeled MB49-cell line was established using the murine stem cell virus (MSCV)-puromycin-luc-GFP construct (kindly provided by Dr. Emily Cheng, Human Oncology and Pathogenesis Program, MSKCC). 4T1 and MB49 cells were maintained in DMEM medium and B16-F10 cells in RPMI medium supplemented with 1 mmol/L sodium pyruvate, 10% fetal calf serum (FCS), 250 μg/ml hygromycin, 0.06 mg/ml penicillin and 0.1 mg/ml streptomycin. The cells were grown as monolayer at 37° C. in a humidified atmosphere (5% CO2, 95% air). • (iv) Murine tumor models—Female, Balb/c mice (6-8 week old) were grafted either subcutaneously (s.c.) into the right hind leg or orthotopically with 1×10^6 4T1 cells suspended in 50 or 1000 PBS. […] Whole body imaging of luciferase-transfected tumors and metastases were recorded five minutes following 75 mg Kg^−1 intraperitoneal (i.p.) injection of D-luciferin with respective filter sets. • (vi) PDT treatment protocol: 4T1-Luc cells were grafted in the mammary pad of Balb/c mice. […] Ablation of primary tumors was assessed every 7 days by imaging the tumor's luciferase-mediated bioluminescence signal, using IVIS.

[2] = test system: Foxp3+ Treg, CD8+ T cells, G-MDSC/neutrophils; format: in vivo
Method: as §1

[3] = test system: orthotopic 4T1-Luc breast tumors; test: Whole-body NIR fluorescence imaging of accumulation and clearance in 4T1 tumor bearing mice; format: in vivo; conditions: i.v.
Method: • (i) Bacteriochlorophyll Derivatives—The Bchl derivatives and RGD-conjugates thereof were provided by Steba Biotech (Rehovot, Israel). […] Concentration was verified by spectrophotometric measurement. STL-7012 was provided as dipotassium salt. Working solution was prepared by dissolving STL-7012 K^+ salt in 5% mannitol solution (1 mg/ml). […] WST11 was supplied as a powder and kept in the dark at −20° C. Stock was prepared by dissolving WST11 in DDW containing 5% glucose and 0.67% mannitol, aliquoted and lyophilized. Working solution was reconstituted with DDW and the concentration of solution was confirmed spectrophotometrically. Alternatively, Clinical WST11 (batch: P00611, and 10-130611) was supplied as lyophilized formulation. Material was dissolved in 5% dextrose, aliquoted and stored at −20° C. […] Aliquots were thawed, diluted with saline to a desired concentration and used on the same day at a dose of 75 mg/kg. […] Whole body imaging of luciferase-transfected tumors and metastases were recorded five minutes following 75 mg Kg^−1 intraperitoneal (i.p.) injection of D-luciferin with respective filter sets. • (vi) PDT treatment protocol: 4T1-Luc cells were grafted in the mammary pad of Balb/c mice. […] Ablation of primary tumors was assessed every 7 days by imaging the tumor's luciferase-mediated bioluminescence signal, using IVIS.

[4] = test system: orthotopic 4T1-Luc tumors; test: STL-6014 PDT and metronomic Gemzar in mice bearing 4T1-Luc tumors in the mammary pad (Scheme 1): primary tumor, survival, lung metastases, re-challenge; format: in vivo, Balb/c mice
Method: (§2) • (i) Bacteriochlorophyll Derivatives—The Bchl derivatives and RGD-conjugates thereof were provided by Steba Biotech (Rehovot, Israel). […] Concentration was verified by spectrophotometric measurement. STL-7012 was provided as dipotassium salt. Working solution was prepared by dissolving STL-7012 K^+ salt in 5% mannitol solution (1 mg/ml). […] WST11 was supplied as a powder and kept in the dark at −20° C. Stock was prepared by dissolving WST11 in DDW containing 5% glucose and 0.67% mannitol, aliquoted and lyophilized. Working solution was reconstituted with DDW and the concentration of solution was confirmed spectrophotometrically. Alternatively, Clinical WST11 (batch: P00611, and 10-130611) was supplied as lyophilized formulation. Material was dissolved in 5% dextrose, aliquoted and stored at −20° C. At the day of treatment the aliquot was thawed, filtered and the concentration of solution was confirmed spectrophotometrically. • (ii) Chemotherapeutic drugs preparation and storage—Gemcitabine (GEM, Gemzar®, Lilly) was purchased from a local pharmacy as a powder, dissolved in saline to a concentration of 38 mg/ml, aliquoted and stored at −20° C. Aliquots were thawed, diluted with saline to a desired concentration and used on the same day at a dose of 75 mg/kg. Cyclophosphamide (CTX, Endoxan®, Baxter Oncology Gmbh, Germany) was purchased from a local pharmacy. A stock solution of 20 mg/ml was prepared by dissolving in 0.9% NaCl, aliquoted and stored at −20° C. Aliquots were thawed, diluted with saline if needed to a desired concentration and used on the same day prepared at indicated doses. • (iii) Murine cell lines—Mammary luciferase (luc)-labeled 4T1 cell line (4T1-Luc) was a kind gift from Dr. Zvi Granot (Faculty of Medicine, The Hebrew University of Jerusalem, Israel); melanoma B16-F10 cell line was obtained from the American Type Culture Collection (ATCC, Manassas, Va.); bladder MB49 cell line was a kind gift from James Allison (MSKCC, New York, USA), and luc-labeled MB49-cell line was established using the murine stem cell virus (MSCV)-puromycin-luc-GFP construct (kindly provided by Dr. Emily Cheng, Human Oncology and Pathogenesis Program, MSKCC). 4T1 and MB49 cells were maintained in DMEM medium and B16-F10 cells in RPMI medium supplemented with 1 mmol/L sodium pyruvate, 10% fetal calf serum (FCS), 250 μg/ml hygromycin, 0.06 mg/ml penicillin and 0.1 mg/ml streptomycin. The cells were grown as monolayer at 37° C. in a humidified atmosphere (5% CO2, 95% air). • (iv) Murine tumor models—Female, Balb/c mice (6-8 week old) were grafted either subcutaneously (s.c.) into the right hind leg or orthotopically with 1×10^6 4T1 cells suspended in 50 or 1000 PBS. For the rechallenge study, 2×10^5 4T1 cells were orthotopically grafted. For bladder cancer model, 5×10^4 of MB49 or MB49-luciferase cell line were s.c. injected into the right flank of C57B/6 male mice (7-8 weeks old, Taconic, Hudson, N.Y.) 15 days prior to VTP treatment. For the efficacy study of VTP in immune compromised mice, the same number of MB49 cells was injected in the flank of Rag^−/− on C57B/6 background or C57B/6 male mice (7-8 week old, Jackson Laboratory, Bar Harbor, Me.). […] Whole body imaging of luciferase-transfected tumors and metastases were recorded five minutes following 75 mg Kg^−1 intraperitoneal (i.p.) injection of D-luciferin with respective filter sets. • (vi) PDT treatment protocol: 4T1-Luc cells were grafted in the mammary pad of Balb/c mice. […]

[5] = test system: splenic immune cells of 4T1-bearing mice; test: FACS profile of splenic immune cell populations in 4T1-bearing mice after STL-6014 PDT and Gemzar; format: in vivo
Method: as §2

## O=P1(N(CCCl)CCCl)NCCCO1 (stereo not shown) [CTX, Cyclophosphamide]
[1]
  primary tumor growth: unable to suppress primary tumor growth
[2]; low dose CTX three days prior VTP, on the VTP day
  number of cells in the draining lymph nodes and spleens: reduced
[2]; three days after CTX administration
  tumor infiltration by regulatory Foxp3+ T cells: significantly reduces
[2]; three days post low dose CTX (VTP day)
  G-MDSC/neutrophils in the tumor microenvironment: reduced

## CC[C@H]1c2cc3[nH]c(c(CC(=O)OC)c4nc(cc5[nH]c(cc(n2)[C@@H]1C)c(C(C)=O)c5C)[C@@H](C)[C@@H]4CCC(=O)O)c(C(=O)NCCS(=O)(=O)[O-])c3C.[K+] [STL-7012, 3^1-oxo-15-methoxycarbonylmethyl-Rhodobacteriochlorin 13^1-(2-sulfoethyl) amide dipotassium salt]
[3]
  clearance: cleared through the liver within a few hours of injection
[3]; STL-6014 7.5 mg/kg, STL-7012 9.5 mg/kg
  accumulation in the tumor (NIR fluorescence): did not accumulate in the tumor

## 3^1-oxo-15-methoxycarbonylmethyl-Rhodobacteriochlorin 13^1-(2-sulfoethyl)amide-17^3-(cycloRGDfK) amide potassium salt [STL-6014]
[4]; 120 days follow up, monotherapy
  survival compared to control (Kaplan-Meier): did not show any significant survival difference
[4]; day 30 post treatment
  animals with primary tumor regrowth: 82%
[5]; first week post treatment
  percentage of G-MDSC/neutrophils and M-MDSC in spleen compared to control: significantly reduced
[5]; mouse, in vivo
  effect on Treg populations in spleen compared with controls: Much smaller effects
